Assay results from patent US20260365670A1, “EGFR INHIBITORS AND USES THEREOF” (DIZAL (JIANGSU) PHARMACEUTICAL CO., LTD., priority 2022, published 2026).
Like-named read-outs stand apart in the source and are kept apart here.

How the values were obtained:
[1] = target: T1, EGFR wild type (Homo sapiens, UniProt P00533); test: Inhibition of EGFR wild type biochemical enzymatic activity (HTRF); settings: 1 mM ATP
T1 construct: purchased Carna Bio
Method in brief: (§1)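 Each enzyme was first added to plates holding compound. The reaction was then started with ATP (1 mM) and peptide substrate (1 μM). It was stopped after 1 h at room temperature with EDTA detection reagents and read at 615/665 nm to derive IC50s.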

[2] = target: T2, EGFR L858R (Homo sapiens, UniProt P00533, L858R); test: Inhibition of EGFR L858R biochemical enzymatic activity (HTRF); settings: 1 mM ATP
T2 construct: purchased Carna Bio
T2 sequence (P00533 25-1210 L858R): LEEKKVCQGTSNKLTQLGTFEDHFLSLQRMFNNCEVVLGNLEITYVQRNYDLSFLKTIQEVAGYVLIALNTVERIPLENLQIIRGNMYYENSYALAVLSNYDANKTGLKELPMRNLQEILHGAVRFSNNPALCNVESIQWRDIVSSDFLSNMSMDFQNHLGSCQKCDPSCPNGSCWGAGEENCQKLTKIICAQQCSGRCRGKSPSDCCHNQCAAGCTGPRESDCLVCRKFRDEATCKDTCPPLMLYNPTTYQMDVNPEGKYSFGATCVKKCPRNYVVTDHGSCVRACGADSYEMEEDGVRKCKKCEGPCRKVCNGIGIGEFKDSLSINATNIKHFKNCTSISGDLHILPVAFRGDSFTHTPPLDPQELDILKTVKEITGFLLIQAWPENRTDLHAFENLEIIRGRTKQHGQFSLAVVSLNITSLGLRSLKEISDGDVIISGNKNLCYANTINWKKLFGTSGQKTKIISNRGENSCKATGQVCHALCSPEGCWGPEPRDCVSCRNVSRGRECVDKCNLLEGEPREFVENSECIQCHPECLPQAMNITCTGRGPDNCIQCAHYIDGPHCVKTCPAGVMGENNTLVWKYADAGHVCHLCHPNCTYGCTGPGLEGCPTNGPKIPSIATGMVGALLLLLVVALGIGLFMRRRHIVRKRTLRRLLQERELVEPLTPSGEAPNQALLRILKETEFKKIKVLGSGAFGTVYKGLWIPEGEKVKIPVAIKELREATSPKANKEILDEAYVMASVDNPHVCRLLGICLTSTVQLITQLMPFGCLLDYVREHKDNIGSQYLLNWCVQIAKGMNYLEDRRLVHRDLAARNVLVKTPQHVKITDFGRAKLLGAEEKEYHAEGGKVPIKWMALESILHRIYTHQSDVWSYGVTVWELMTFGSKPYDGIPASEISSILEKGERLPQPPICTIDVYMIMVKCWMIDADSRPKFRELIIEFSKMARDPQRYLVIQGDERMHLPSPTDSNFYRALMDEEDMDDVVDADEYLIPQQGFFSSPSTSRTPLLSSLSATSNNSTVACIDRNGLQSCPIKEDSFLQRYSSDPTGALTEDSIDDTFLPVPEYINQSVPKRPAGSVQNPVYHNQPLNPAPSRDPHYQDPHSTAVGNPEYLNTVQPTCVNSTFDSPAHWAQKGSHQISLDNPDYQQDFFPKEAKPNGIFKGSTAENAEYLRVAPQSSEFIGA
Method in brief: as §1

[3] = target: T3, EGFR L858R/T790M (Homo sapiens, UniProt P00533, L858R/T790M); test: Inhibition of EGFR L858R/T790M biochemical enzymatic activity (HTRF); settings: 1 mM ATP
T3 construct: purchased Carna Bio
Method in brief: as §1

[4] = target: T4, EGFR Exon19Del (Homo sapiens, UniProt P00533, DEL746-750); test: Inhibition of EGFR Exon19Del biochemical enzymatic activity (HTRF); settings: read-out: IC50 @Del19
T4 construct: purchased Carna Bio
T4 sequence (P00533 with tags, fused parts or gaps DEL746-750 limits assumed): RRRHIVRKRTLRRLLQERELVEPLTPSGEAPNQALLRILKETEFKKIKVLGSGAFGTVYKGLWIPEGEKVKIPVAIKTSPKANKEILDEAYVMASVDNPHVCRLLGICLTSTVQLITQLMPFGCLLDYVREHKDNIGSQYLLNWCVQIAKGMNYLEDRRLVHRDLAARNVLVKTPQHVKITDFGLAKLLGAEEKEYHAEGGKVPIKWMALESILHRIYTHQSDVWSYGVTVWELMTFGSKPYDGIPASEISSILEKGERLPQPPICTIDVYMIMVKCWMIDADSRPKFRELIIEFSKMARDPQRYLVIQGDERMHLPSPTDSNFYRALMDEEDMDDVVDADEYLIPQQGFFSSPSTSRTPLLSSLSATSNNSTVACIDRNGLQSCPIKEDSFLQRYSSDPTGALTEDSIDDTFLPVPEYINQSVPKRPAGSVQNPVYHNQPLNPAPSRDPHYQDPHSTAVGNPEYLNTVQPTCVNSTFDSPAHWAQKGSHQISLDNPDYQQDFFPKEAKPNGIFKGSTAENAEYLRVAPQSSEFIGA
Method in brief: as §1

[5] = target: T5, EGFR Exon19Del/T790M (Homo sapiens, UniProt P00533, DEL746-750/T790M); test: Inhibition of EGFR Exon19Del/T790M biochemical enzymatic activity (HTRF); settings: 1 mM ATP
T5 construct: purchased Carna Bio
Method in brief: as §1

[6] = target: T6, EGFR[T790M/C797S/L858R] (Homo sapiens, UniProt P00533, C797S/L858R/T790M); test: Inhibition of EGFR[T790M/C797S/L858R] biochemical enzymatic activity (HTRF); settings: 1 mM ATP
T6 construct: purchased Carna Bio
T6 sequence (P00533 25-1210 T790M/C797S/L858R): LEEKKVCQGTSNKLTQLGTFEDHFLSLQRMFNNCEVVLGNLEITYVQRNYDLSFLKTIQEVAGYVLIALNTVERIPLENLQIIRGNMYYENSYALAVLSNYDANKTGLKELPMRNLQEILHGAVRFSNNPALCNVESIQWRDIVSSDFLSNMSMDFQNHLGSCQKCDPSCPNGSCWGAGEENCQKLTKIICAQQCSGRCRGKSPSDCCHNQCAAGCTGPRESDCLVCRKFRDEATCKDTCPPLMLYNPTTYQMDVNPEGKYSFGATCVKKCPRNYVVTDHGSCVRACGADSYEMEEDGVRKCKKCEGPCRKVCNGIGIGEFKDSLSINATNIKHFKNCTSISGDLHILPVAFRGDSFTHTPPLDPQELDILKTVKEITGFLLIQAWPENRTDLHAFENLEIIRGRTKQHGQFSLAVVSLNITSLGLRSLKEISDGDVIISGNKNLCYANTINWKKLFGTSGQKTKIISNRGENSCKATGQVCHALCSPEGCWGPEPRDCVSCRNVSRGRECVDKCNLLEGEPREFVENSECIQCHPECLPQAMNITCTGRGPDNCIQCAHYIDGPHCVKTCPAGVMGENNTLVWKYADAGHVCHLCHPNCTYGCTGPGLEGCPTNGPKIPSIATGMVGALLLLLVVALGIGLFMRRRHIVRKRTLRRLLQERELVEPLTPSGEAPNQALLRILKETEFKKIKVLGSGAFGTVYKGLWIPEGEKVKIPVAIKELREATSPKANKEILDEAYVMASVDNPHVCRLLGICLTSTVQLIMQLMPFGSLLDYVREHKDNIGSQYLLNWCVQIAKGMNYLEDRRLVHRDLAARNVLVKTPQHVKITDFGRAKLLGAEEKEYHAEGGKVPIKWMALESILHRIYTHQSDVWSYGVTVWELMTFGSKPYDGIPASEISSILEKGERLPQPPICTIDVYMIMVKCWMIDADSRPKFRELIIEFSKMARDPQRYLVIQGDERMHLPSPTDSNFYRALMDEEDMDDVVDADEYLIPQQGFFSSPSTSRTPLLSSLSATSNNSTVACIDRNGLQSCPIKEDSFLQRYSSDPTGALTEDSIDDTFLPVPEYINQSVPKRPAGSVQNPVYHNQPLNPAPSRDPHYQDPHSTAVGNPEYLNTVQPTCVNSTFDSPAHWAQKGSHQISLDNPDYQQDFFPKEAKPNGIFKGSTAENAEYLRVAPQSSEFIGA
Method in brief: as §1

[7] = target: T7, EGFR[T790M/C797S/d746-750] (Homo sapiens, UniProt P00533, C797S/DEL746-750/T790M); test: Inhibition of EGFR[T790M/C797S/d746-750] biochemical enzymatic activity (HTRF)
T7 construct: purchased Carna Bio
T7 sequence (P00533 with tags, fused parts or gaps DEL746-750/T790M/C797S limits assumed): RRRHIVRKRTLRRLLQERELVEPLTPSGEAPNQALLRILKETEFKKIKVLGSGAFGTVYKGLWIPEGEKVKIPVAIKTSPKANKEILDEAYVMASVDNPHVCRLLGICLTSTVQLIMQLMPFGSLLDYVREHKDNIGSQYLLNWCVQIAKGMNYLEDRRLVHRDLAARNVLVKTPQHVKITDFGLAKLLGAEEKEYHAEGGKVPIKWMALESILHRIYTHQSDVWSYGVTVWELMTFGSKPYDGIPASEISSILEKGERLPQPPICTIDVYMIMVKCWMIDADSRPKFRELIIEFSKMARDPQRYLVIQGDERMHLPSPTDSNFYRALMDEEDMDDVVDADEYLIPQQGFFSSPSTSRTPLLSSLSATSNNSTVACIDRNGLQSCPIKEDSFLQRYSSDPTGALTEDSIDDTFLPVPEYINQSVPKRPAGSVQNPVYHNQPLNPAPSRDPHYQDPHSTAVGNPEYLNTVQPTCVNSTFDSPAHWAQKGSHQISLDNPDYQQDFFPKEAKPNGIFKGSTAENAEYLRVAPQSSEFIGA
Method in brief: as §1

[8] = target: T8, EGFR (d746-750 C797S) (Homo sapiens, UniProt P00533, C797S/DEL746-750); test: Inhibition of EGFR (d746-750 C797S) biochemical enzymatic activity (HTRF); settings: 1 mM ATP
T8 construct: purchased signalchem
Method in brief: as §1

[9] = target: T9, EGFR (C797S L858R) (Homo sapiens, UniProt P00533, C797S/L858R); test: Inhibition of EGFR (C797S L858R) biochemical enzymatic activity (HTRF); settings: 1 mM ATP
T9 construct: purchased signalchem
Method in brief: as §1

[10] = system: Ba/F3 cells expressing EGFR mutations; test: Cell proliferation assay, Ba/F3 cells expressing EGFR mutations (CellTiter-Glo, 72 hours); format: cell-based
Method in brief: (§2)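 Cells are exposed to graded compound concentrations after overnight plating, using 500 PC-9 or 5000 Ba/F3 per well. Baseline-subtracted viability is compared with vehicle to give percent proliferation, then GI50.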

[11] = system: PC-9; test: Cell proliferation assay, PC-9 cells (CellTiter-Glo, 72 hours); format: cell-based; settings: PC9 cells, read-out: GI50 PC9
Method in brief: as §2

[12] = system: A-431; test: Cell proliferation assay, A-431 cells (GI50, Table 6); format: cell-based
[13] = EGFR wild type, 1 h at room temperature, read-out: IC50 @WT
[14] = 1 h at room temperature, read-out: IC50 @L858R
[15] = EGFR L858R/T790M, 1 h at room temperature, read-out: IC50 @L858R-T790M
[16] = EGFR Exon19Del, 1 mM ATP, 1 h at room temperature
[17] = EGFR Exon19Del/T790M, 1 h at room temperature, read-out: IC50 @Del19-T790M
[18] = EGFR[T790M/C797S/L858R], 1 h at room temperature, read-out: IC50 @T790M- C797S - L858R
[19] = EGFR[T790M/C797S/d746-750], 1 mM ATP, 1 h at room temperature, read-out: IC50 @T790M - C797S - Del19
[20] = EGFR (d746-750 C797S), 1 h at room temperature, read-out: IC50 @Del19-C797S
[21] = EGFR (C797S L858R), 1 h at room temperature, read-out: IC50 @L858-C797S
[22] = BaF3 cells, EGFR DEL19 - C797S, read-out: GI50 DEL19 - C797S/BaF3
[23] = BaF3 cells, EGFR DEL19 - T790-C797S, read-out: GI50 DEL19 - T790-C797S/BaF3
[24] = BaF3 cells, EGFR L858R - C797S, read-out: GI50 L858R - C797S/BaF3
[25] = BaF3 cells, EGFR L858R - T790-C797S, read-out: GI50 L858R - T790-C797S/BaF3
[26] = BaF3 cells, EGFR L858R - T790M, read-out: GI50 L858R - T790M/BaF3
[27] = BaF3 cells, EGFR L858R, read-out: GI50 L858R/BaF3
[28] = EGFR DEL19 - T790M, read-out: GI50 DEL19 - T790M
[29] = Mus musculus, BaF3, 72 h, BaF3 cells, EGFR DEL19 - C797S, read-out: GI50 DEL19 - C797S/BaF3
[30] = Mus musculus, BaF3, 72 h, BaF3 cells, EGFR DEL19 - T790-C797S, read-out: GI50 DEL19 - T790-C797S/BaF3
[31] = Mus musculus, BaF3, 72 h, BaF3 cells, EGFR L858R - C797S, read-out: GI50 L858R - C797S/BaF3
[32] = Mus musculus, BaF3, 72 h, BaF3 cells, EGFR L858R - T790-C797S, read-out: GI50 L858R - T790-C797S/BaF3
[33] = Mus musculus, BaF3, 72 h, BaF3 cells, EGFR L858R - T790M, read-out: GI50 L858R - T790M/BaF3
[34] = Mus musculus, BaF3, 72 h, BaF3 cells, EGFR L858R, read-out: GI50 L858R/BaF3
[35] = Mus musculus, BaF3, 72 h, EGFR DEL19 - T790M, read-out: GI50 DEL19 - T790M
[36] = Homo sapiens, A-431, A-431 cells

T1 sequence (P00533 25-1210): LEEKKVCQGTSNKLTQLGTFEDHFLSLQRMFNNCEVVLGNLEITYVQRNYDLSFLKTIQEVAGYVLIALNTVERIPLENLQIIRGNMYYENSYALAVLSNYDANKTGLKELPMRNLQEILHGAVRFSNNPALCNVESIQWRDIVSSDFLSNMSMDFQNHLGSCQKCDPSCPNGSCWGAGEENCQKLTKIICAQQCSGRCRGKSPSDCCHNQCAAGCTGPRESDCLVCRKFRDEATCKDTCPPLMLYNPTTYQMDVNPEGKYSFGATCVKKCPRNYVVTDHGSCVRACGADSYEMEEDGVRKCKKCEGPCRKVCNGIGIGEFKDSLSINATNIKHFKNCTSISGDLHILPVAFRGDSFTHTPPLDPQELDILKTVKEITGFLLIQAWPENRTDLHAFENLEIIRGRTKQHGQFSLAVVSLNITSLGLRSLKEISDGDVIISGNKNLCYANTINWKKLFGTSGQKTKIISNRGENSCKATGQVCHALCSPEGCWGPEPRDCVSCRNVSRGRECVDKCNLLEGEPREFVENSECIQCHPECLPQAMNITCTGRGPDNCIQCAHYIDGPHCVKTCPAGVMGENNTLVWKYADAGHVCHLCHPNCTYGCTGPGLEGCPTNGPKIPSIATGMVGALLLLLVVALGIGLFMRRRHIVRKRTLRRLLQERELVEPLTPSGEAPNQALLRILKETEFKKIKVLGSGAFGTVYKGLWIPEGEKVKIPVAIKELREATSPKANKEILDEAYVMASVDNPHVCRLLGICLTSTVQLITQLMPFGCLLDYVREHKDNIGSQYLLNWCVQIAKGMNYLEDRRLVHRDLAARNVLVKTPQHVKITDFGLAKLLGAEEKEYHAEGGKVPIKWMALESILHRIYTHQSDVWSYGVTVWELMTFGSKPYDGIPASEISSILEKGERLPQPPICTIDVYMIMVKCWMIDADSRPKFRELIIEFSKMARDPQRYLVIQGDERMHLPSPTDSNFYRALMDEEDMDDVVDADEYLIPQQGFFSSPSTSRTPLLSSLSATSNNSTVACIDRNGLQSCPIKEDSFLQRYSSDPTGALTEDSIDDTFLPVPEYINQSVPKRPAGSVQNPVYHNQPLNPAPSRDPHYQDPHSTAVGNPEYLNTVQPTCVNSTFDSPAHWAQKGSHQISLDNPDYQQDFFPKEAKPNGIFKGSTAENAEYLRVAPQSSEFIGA

## Cc1cc2cc(n1)-c1cnn(C)c1OCCN1CC3CCC(C3)(C1)n1c(nc3ccc(N4CCC5(CCN(C)C5)CC4)cc31)NC2=O (single isomer, unassigned) [Example B52B]
[1]; [13]
  IC50: 8.3 nM
[2]; [14]
  IC50: 6 nM
[3]; [15]
  IC50: 3.5 nM
[4]; [16]
  IC50: 5.4 nM
[5]; [17]
  IC50: 4.5 nM
[6]; [18]
  IC50: 1.6 nM
[7]; [19]
  IC50: 2 nM
[8]; [20]
  IC50: 2.4 nM
[9]; [21]
  IC50: 3.2 nM
[10]; [22]
  GI50: 2 nM
[10]; [23]
  GI50: 2 nM
[10]; [24]
  GI50: 2 nM
[10]; [25]
  GI50: 2 nM
[10]; [26]
  GI50: 2 nM
[10]; [27]
  GI50: 2 nM
[10]; [28]
  GI50: 7 nM
[11]
  GI50: 4 nM
[12]; A-431 cells
  GI50: 879 nM

## Cc1cc2cc(n1)-c1cnn(C)c1OCCN1CC3CCC(C3)(C1)n1c(nc3ccc(N4CCN(C)CC4)cc31)NC2=O (stereo not drawn) [Example B9B, 15,21-Dimethyl-5-(4-methylpiperazin-1-yl)-23-oxa-2,9,11,16,20,21,26-heptaazaheptacyclo[24.4.1.1^{1,28}.1^{13,17}.0^{2,10}.0^{3,8}.0^{18,22}]tritriaconta-3,5,7,9,13,15,17(33),18(22),19-nonaen-12-one]
[1]; [13]
  IC50: 114 nM
[2]; [14]
  IC50: 7.4 nM
[3]; [15]
  IC50: 1.1 nM
[4]; [16]
  IC50: 1.4 nM
[5]; [17]
  IC50: 1.3 nM
[6]; [18]
  IC50: 1 nM
[7]; [19]
  IC50: 1.4 nM
[8]; [20]
  IC50: 0.73 nM
[9]; [21]
  IC50: 3.3 nM
[10]; [29]
  GI50: 0.58 nM
[10]; [30]
  GI50: 0.59 nM
[10]; [31]
  GI50: 3.2 nM
[10]; [32]
  GI50: 0.6 nM
[10]; [33]
  GI50: 0.83 nM
[10]; [34]
  GI50: 2.7 nM
[10]; [35]
  GI50: 0.6 nM
[11]; Homo sapiens, PC-9, 72 h
  GI50: 6.1 nM
[12]; [36]
  GI50: 366 nM

## Cc1cc2cc(n1)-c1cnn(C3CC3)c1OCCN(CC(F)(F)F)CCn1c(nc3ccccc31)NC2=O [Example B6, 5-cyclopropyl-26-methyl-10-(2,2,2-trifluoroethyl)-7-oxa-4,5,10,13,20,22,27-heptaazapentacyclo[22.3.1.0^{2,6}.0^{13,21}.0^{14,19}]octacosa-1(27),2(6),3,14,16,18,20,24(28),25-nonaen-23-one]
[1]; EGFR WT, 1 h, room temperature, read-out: IC50 (nM) @WT
  IC50: > 5000 nM
[2]; 1 h, room temperature, read-out: IC50 (nM) @L858R
  IC50: 1090 nM
[3]; EGFR L858R-T790M, 1 h, room temperature, read-out: IC50 (nM) @L858R-T790M
  IC50: 9 nM
[4]; EGFR Del19, 1 mM ATP, 1 h, room temperature
  IC50: 197 nM
[5]; EGFR Del19-T790M, 1 h, room temperature, read-out: IC50 (nM) @Del19-T790M
  IC50: 5.2 nM
[6]; EGFR T790M-C797S-L858R, 1 h, room temperature, read-out: IC50 (nM) @T790M- C797S - L858R
  IC50: 3.1 nM
[7]; EGFR T790M-C797S-Del19, 1 mM ATP, 1 h, room temperature, read-out: IC50 (nM) @T790M - C797S - Del19
  IC50: 3.6 nM
[8]; EGFR Del19-C797S, 1 h, room temperature, read-out: IC50 (nM) @Del19-C797S
  IC50: 112 nM
[9]; EGFR L858-C797S, 1 h, room temperature, read-out: IC50 (nM) @L858-C797S
  IC50: 390 nM
[10]; [29]
  GI50: 62 nM
[10]; [30]
  GI50: 42 nM
[10]; [31]
  GI50: 69 nM
[10]; [32]
  GI50: 7.7 nM
[10]; [33]
  GI50: 16 nM
[10]; [34]
  GI50: 35 nM
[10]; [35]
  GI50: 48 nM
[11]; Homo sapiens, PC-9, 72 h
  GI50: 145 nM
[12]; [36]
  GI50: 2830 nM

## Cc1cc2cc(n1)-c1cnn(C)c1OCCN1CC3CCC(C3)(C1)n1c(nc3ccc(N4CCC5(CC4)CCN5C)cc31)NC2=O (single isomer, unassigned) [Example B54A]
[1]; [13]
  IC50: > 5000 nM
[2]; [14]
  IC50: > 5000 nM
[3]; [15]
  IC50: > 5000 nM
[4]; [16]
  IC50: > 5000 nM
[5]; [17]
  IC50: 647 nM
[6]; [18]
  IC50: > 5000 nM
[7]; [19]
  IC50: 233 nM
[8]; [20]
  IC50: 4720 nM
[9]; [21]
  IC50: > 5000 nM
[10]; [22]
  GI50: 280 nM
[10]; [23]
  GI50: 241 nM
[10]; [24]
  GI50: 584 nM
[10]; [25]
  GI50: 107 nM
[10]; [26]
  GI50: 298 nM
[10]; [27]
  GI50: 801 nM
[10]; [28]
  GI50: 527 nM
[11]
  GI50: 515 nM
[12]; A-431 cells
  GI50: 3410 nM
